Measurements as given in US20220403048A1, “BINDING MOLECULES TO ARGINASE II [ARG2]” (Cancer Research Technology Limited, priority 2019, published 2022).
Numbering of substitutions follows the chain as printed. Like-named read-outs stand apart in the source and are kept apart here. Marks after values point to notes of the source that are not given here.

How the values were obtained:
both ARG isoforms = details: cited from earlier work; for Kd: both ARG isoforms at physiologic pH, read-out: binding constant (KD)
[1] = target: T1, THP-1 lysate derived human trimeric ARG2 (Homo sapiens, UniProt P78540); experiment: THP-1 lysate derived human ARG2 enzyme inhibition assay; assay type: biochemical
T1 construct: expressed in transfected cells; host or cells: THP-1 cells overexpressing human ARG2 (cell lysate)
T1 sequence (P78540 23-354): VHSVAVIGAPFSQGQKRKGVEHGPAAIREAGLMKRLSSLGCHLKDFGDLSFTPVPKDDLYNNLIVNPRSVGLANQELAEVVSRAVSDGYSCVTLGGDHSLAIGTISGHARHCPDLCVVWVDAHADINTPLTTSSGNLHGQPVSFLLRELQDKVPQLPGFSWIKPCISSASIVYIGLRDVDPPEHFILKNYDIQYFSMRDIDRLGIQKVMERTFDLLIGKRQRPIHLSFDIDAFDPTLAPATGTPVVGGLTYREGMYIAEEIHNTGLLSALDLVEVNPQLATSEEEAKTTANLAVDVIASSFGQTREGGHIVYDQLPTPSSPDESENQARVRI
Method: Anti-ARG2 IgGs were tested for their ability to inhibit mammalian expressed human ARG2 produced in transfected THP-1 cells. To do this cell lysates were prepared from THP-1 cells overexpressing human ARG2 and from wild type THP-1 cells. 350 million cells were suspended in 3 ml tris buffered saline (25 mM Tris+150 mM sodium chloride in dH2O, pH 7.4) and cell lysates prepared by passing through a 26G needle 20 times. A BCA assay was used to measure the protein concentration in the lysate. […] Antibodies were tested alongside N-Hydroxyl-L-Arginine (a small molecule competitive inhibitor of ARG2) as a positive control and CEA6 (irrelevant isotype control antibody) as a negative control. Data points were plotted and IC50 values determined using a four parameter fit in GraphPad Prism (FIG. 11, Table 13).
Anti-ARG2 IgGs were tested for their ability to inhibit to mammalian expressed human ARG2 produced in transfected THP-1 cells. […] Urea detection reagents, O-Phthaldialdehyde (1.5 mM O-Phthaldialdehyde, 7% H2SO4, 0.03% Brij L23) and N-(1-Napthyl)ethylenediamine (1.66 mM N-(1-Napthyl)ethylenediamine, 81 mM Boric acid, 21% H2SO4, 0.03% Brij L23) were mixed 1:1 just prior to use and 80 μl/well were added, incubated for 1 hour at room temperature and absorbance at 505 nm was read on a Pherastar plate reader. […]

ARG2 [2] = target: T2, ARG2 (Homo sapiens, UniProt P78540); experiment: T cell proliferation assay (BrdU, 72 hours) with exogenous ARG2; assay type: cell-based; design: human ARG2 (aa23-354); His10 (C); made in house; host or cells: E. coli BL21 (DE3); details: In Presence of rhARG2, NHLA value at 0.444 mM
T2 sequence (P78540 23-354): T1 sequence (P78540 23-354)
Method: (§1) This assay served to provide in vitro evidence of functional efficacy for each antibody.
(§2) Briefly, Leukocyte cones (NHS Blood and Transplant, Watford, UK) underwent Ficoll Plaque (GE, Sweden; Cat: 17-1440-02) gradient separation, PBMC's were extracted and pan T cell population isolated by negative selection using the Human T Cell Enrichment Kit (Stemcell Technologies, France; Cat: 19051) according to the manufacturer's instructions.
(§3) 40000 cells/well were seeded in complete growth media (RMPI 1640, 5% Human Serum Albumin) into a 96 well clear TC treated microplate (Greiner-Bio One, Germany; Cat: 655180). T Cells were activated by the addition of ImmunoCult CD3/CD28 (Stemcell Technologies, France; Cat: 10971) at a dilution of 1:40 directly into wells and the plate incubated 37° C., 5% CO2 for 45 minutes.
(§4) To determine EC50's of test antibodies, a dilution series was created in sterile TBS at 8× the final assay concentration was added to the assay plate containing cells. Plate was incubated for 30 minutes at 37° C., 5% CO2.
(§5) ARG2 was added to relevant wells of the plate at a final concentration of 15 μg/ml. The equivalent volume of ARG2 vehicle and test antibody vehicle was added to relevant control wells. […]
(§6) Calculated data was expressed as % of control (Equation 3) and graphical plots were constructed using a four parameter fit and EC50's determined using model 205 in XLFit (IDBS, UK). […]

ARG2 [3] = target: T2, ARG2; experiment: as above; assay type: cell-based; details: In Absence of rhARG2
Method: as §1, §2, §3, §4, §5, §6

trimeric human ARG2 = target: T3, trimeric human ARG2 (Homo sapiens, UniProt P78540); experiment: Human trimeric ARG2 enzyme inhibition assay (urea production); assay type: biochemical
T3 construct: human ARG2 (aa23-354); His10 (C); made in house; host or cells: E. coli BL21 (DE3)
T3 sequence (P78540 23-354): T1 sequence (P78540 23-354)
Method: Unpurified anti-ARG2 scFv fragments from periplasmic preparations were screened in an ARG2 enzyme inhibition assay using a Pherastar plate reader (BMG Labtech, Germany). In this assay, the ability of unpurified scFv to inhibit the enzymatic activity of trimeric ARG2 was determined by measuring the production of urea, the product of L-arginine turnover by ARG2.
Selection outputs were screened as unpurified bacterial periplasmic extracts containing scFv, prepared in 200 mM TES buffer pH 7.4, 0.5 mM EDTA and 0.5 M sucrose. 10 μl of unpurified scFv were added to a Greiner Bio-One® 384 well assay plate (Greiner Bio-one, UK; cat: 781901). […]
Urea was detected by the simultaneous addition of equal volumes of O-Phthaldialdehyde (1.5 mM O-Phthaldialdehyde, 7% H2SO4, 0.03% Brij L23) and N-(1-Napthyl)ethylenediamine (1.66 mM N-(1-Napthyl)ethylenediamine, 81 mM Boric acid, 21% H2SO4, 0.03% Brij L23) followed by an 18 minute incubation at room temperature before the colorimetric product was quantified on the Pherastar by measuring absorbance at 505 nm. […]
Data were analysed by calculating % maximum (max) control for each sample using the 505 nm absorbance data. % max control was determined according to equation 2. […]
Data were again analysed by calculating % Max control values for each sample. […]

monomeric ARG2 = target: T4, monomeric ARG2 (Homo sapiens, UniProt P78540, E275Q); experiment: Human monomeric ARG2 enzyme inhibition assay; assay type: biochemical; details: purified recombinant human IgG1, FIG. 5
T4 construct: human ARG2 (aa23-354); His10 (C); made in house; host or cells: E. coli
T4 sequence (P78540 23-354 E275Q): T1 sequence (P78540 23-354) with E253Q
Method: ARG2 specific recombinant IgG1 were screened for their ability to inhibit enzymatic activity of monomeric ARG2. In this assay, the ability of ARG2 specific recombinant IgG1 to inhibit the enzymatic activity of monomeric ARG2 was determined by measuring the production of urea, the product of L-arginine turnover by monomeric ARG2.
IC50 values were determined by testing a dilution series of the ARG2 specific recombinant IgG1, prepared in TBS.
10 μl of ARG2 specific recombinant IgG1 (dilution series) were added to a Greiner Bio-One® 384 well assay plate (Greiner Bio-one, UK; cat: 781901). […]
Urea was detected by the simultaneous addition of equal volumes of O-Phthaldialdehyde (1.5 mM O-Phthaldialdehyde, 7% H2SO4, 0.03% Brij L23) and N-(1-Napthyl)ethylenediamine (1.66 mM N-(1-Napthyl)ethylenediamine, 81 mM Boric acid, 21% H2SO4, 0.03% Brij L23) followed by an 18 minute incubation at room temperature before the colorimetric product was quantified on the Pherastar by measuring absorbance at 505 nm.
ARG2 specific recombinant IgG1 were tested alongside N-Hydroxyl-L-Arginine (a small molecule competitive inhibitor of ARG2) as a positive control and NIP228 (irrelevant isotype control antibody) as a negative control. Data points were plotted and IC50 values determined using a four parameter fit in GraphPad Prism (FIG. 5).

N[C@@H](CCCCB(O)O)C(=O)O [ABH, 2(S)-amino-6-boronohexanoic acid]
Kd (both ARG isoforms): ~0.3 µM

N[C@@H](CSCCB(O)O)C(=O)O [BEC, S-(2-boronoethyl)-L-cysteine]
Kd (both ARG isoforms): ~0.3 µM

N=C(N)NCCC[C@H](N)C(=O)O [L-arginine]
Km (both ARG isoforms; natural substrate of arginase): 5 mM

NC(=NO)NCCC[C@H](N)C(=O)O [NHLA, NG-Hydroxy-L-arginine, reference compound]
IC50 ([1]; methods of section 2.8, FIG. 16, read-out: THP-1 ARG2 EIA IC50): 12.9 µM
IC50 ([1]; recombinant human IgG1, lysate without plasma (section 3.3), FIG. 13, read-out: THP-1 lysate ARG2 EIA IC50): 4.75 µM
Maximum % Proliferation (ARG2 [2]): 49* %
EC50 (ARG2 [3]): < 1.8 µM
Maximum % Proliferation (ARG2 [3]): 80%
inhibition of the activity of human trimeric ARG2 (trimeric human ARG2; purified recombinant human IgG1, FIG. 3): able to inhibit
inhibition of the activity of human trimeric ARG2 (trimeric human ARG2; purified scFv, FIG. 2): able to inhibit
inhibition of the activity of human monomeric ARG2 (monomeric ARG2): able to inhibit
